Source: patent publication US20230047825A1, “ANTIMICROBIAL PEPTIDES” (priority 2019, published 2023)
Values after ≈ are worked out from the molar mass of the structure shown. Read-outs that look alike come from different tables or passages of the source. Where a SMILES comes first, the peptide text is derived from it.

What was measured:
C. albicans = test: MIC on initial panels, fungi; format: cell-based; conditions: unit inferred
A549 = test: Cytotoxicity assay; format: cell-based; conditions: value printed in parentheses
human red blood cells = test: Haemolysis assay; conditions: red cells of human, 1 h
Procedure: Haemolysis assay. Haemolysis was tested by incubating titrations of AMPs in PBS with freshly collected human red blood cells for 1 hour at 37 C. Control wells were treated with 0.1% Triton-X-100 to ensure complete lysis, or PBS-only to represent no lysis. Samples were spun down to remove non-lysed cells and the OD^550 of the supernatant was measured using a Clariostar plate reader. The percentage of haemolysis was calculated as % haemolysis=(AP−AB)/(AC−AB)×100, where AP is the absorbance value for a known peptide concentration, AC is the absorbance of the 0.1% Triton-X-100 control, AB is the absorbance of the PBS control. Data presented are averages and standard error from three biological replicate experiments.
Methods: The natural AMP (termed AMP1) was modified to produce synthetic variants, AMPs 1a, 2a, 2b, 3a and 3b. Minimum inhibitory concentrations (MICs) were determined using the microbroth dilution assay with Mueller Hinton broth (MHB) or RPMI (with 5% FBS) and stability in serum was tested by conducting MICs in MHB containing 10% FBS. Synergy experiments were performed following a checkerboard protocol. Cytotoxicity was tested against HEK293 and HeLa immortalised human cell-lines using the XTT viability stain and by quantifying haemolysis of human red blood cells. Patch clamp analysis was performed using the Port-a-Patch® automated patch-clamp system on DPhPE/DPhPG (model for a Gram-negative plasma membrane) or DPhPG (Gram-positive) model membranes challenged with peptide. The murine lung infection model was performed using the agar bead model with Staphylococcus aureus strain NCTC 13616 (EMRSA-15).

Klebsiella pneumoniae M6 = format: cell-based
[1] = system: Pseudomonas aeruginosa PA01; test: Antibacterial activity assay (broth microdilution MIC); format: cell-based
[2] = system: EMR Staphylococcus aureus-16 (EMRSA-16); format: cell-based; conditions: EMRSA16
[3] = system: Acinetobacter baumannii AYE; format: cell-based; conditions: AYE
[4] = system: Pseudomonas aeruginosa NCTC 13437; test: Antibacterial activity assay (broth microdilution MIC); format: cell-based; conditions: PA13437, in µg/mL
[5] = system: VS Enterococcus faecalis NCTC 775; test: as above; format: cell-based
VRE12201 = test: as above; format: cell-based, Enterococcus faecalis; conditions: medium and unit inferred
Text: (§1) Antibacterial activity assay.
The bacterial strains used are as in the above examples. A table of strains is provided below to aid understanding.

[6] = system: Acinetobacter baumannii ATCC 17978; format: cell-based; conditions: in µg/mL; for MIC, Stability in serum (MH): Ab17978
[7] = system: Escherichia coli NCTC 12923; format: cell-based; conditions: EC12923
HeLa = test: Cytotoxicity assay (XTT); format: cell-based, human; parameters: Toxicity HeLa: unit not given beside the values
Procedure: (§2) Cytotoxicity assay. HeLa and HEK293 cell lines were purchased from ECACC and cultured in Eagle's Minimum Essential Media (EMEM) containing glutamine, supplemented with 10% FBS and 1× non-essential amino acids (NEAA) at 37° C., 10% CO2. Cytotoxicity was measured by incubating starter cultures of cells for 24 hours in a 96 well plate, gently removing the supernatant and replacing it with dilutions of peptides and controls, incubating for a further 24 hours and then staining of the cells with the second generation tetrazolium dye, XTT. […]

HEK293 = test: Cytotoxicity assay (XTT); format: cell-based, human
Procedure: as §2

[8] = system: VR Enterococcus faecium NCTC 12204; test: Antibacterial activity assay (broth microdilution MIC); format: cell-based; conditions: VRE12204, in µg/mL
[9] = system: Klebsiella pneumoniae NCTC 13368; format: cell-based; conditions: KP13368, in µg/mL
Calu-3 = test: Cytotoxicity assay; format: cell-based; conditions: value printed in parentheses
P. aeruginosa RP73 = test: Antibacterial activity assay (broth microdilution MIC); format: cell-based, Pseudomonas aeruginosa; conditions: in µg/mL
Procedure: as §1
Synergy experiments were performed following a checkerboard protocol.

[10] = system: EMR Staphylococcus aureus-15 (EMRSA-15); format: cell-based
[11] = system: MS Staphylococcus aureus ATCC 9144; format: cell-based; conditions: MSSA9144
[12] = medium and unit not given, in µg/mL
[13] = untitled table, medium/unit not given, values match RPMI of Table 2, in µg/mL
[14] = untitled table, medium/unit inferred, values match RPMI of Table 2
[15] = untitled table, medium/unit not given, values match RPMI of Table 2

CC(C)C[C@@H](NC(=O)[C@@H](Cc1ccc(O)cc1)NC(=O)[C@@H](Cc1c[nH]cn1)NC(=O)[C@H](NC(=O)[C@@H](CC(C)C)NC(=O)[C@@H](C)NC(=O)[C@@H](C)NC(=O)[C@@H](CCCCN)NC(=O)CNC(=O)[C@@H](C)NC(=O)[C@@H](Cc1c[nH]cn1)NC(=O)[C@@H](CCCCN)NC(=O)CNC(=O)[C@@H](C)NC(=O)[C@@H](Cc1c[nH]cn1)NC(=O)[C@@H](C)NC(=O)[C@@H](C)NC(=O)[C@@H](CCCCN)NC(=O)[C@@H](CCCCN)NC(=O)[C@@H](Cc1ccccc1)NC(=O)[C@@H](Cc1ccccc1)NC(=O)[C@@H](CO)NC(=O)CNC(=O)[C@@H](Cc1c[nH]c2ccccc12)NC(=O)CN)[C@H](C)O)C(N)=O [D-pleurocidin-VA] (HELM PEPTIDE1{G.[dW].G.[dS].[dF].[dF].[dK].[dK].[dA].[dA].[dH].[dA].G.[dK].[dH].[dA].G.[dK].[dA].[dA].[dL].[dT].[dH].[dY].[dL].[am]}$$$$V2.0; N-terminus assumed)
MIC on initial panels, Fungi (C. albicans): 8 µg/mL (≈ 3.01 µM)
Toxicity A549 (EC50), Peptide concentration (A549): (>250) μg/ml
Toxicity HC50, Peptide concentration (human red blood cells): >>400 μg/ml
MIC, Stability in serum (MH) (Klebsiella pneumoniae M6; No serum): 4 µg/mL (≈ 1.51 µM)
MIC, Stability in serum (MH) (Klebsiella pneumoniae M6; Serum (10% fetal bovine serum)): 8 µg/mL (≈ 3.01 µM)
MIC on initial panels (Klebsiella pneumoniae M6; [12]): 4
MIC (Klebsiella pneumoniae M6; [13]): 32
MIC, Stability in serum (MH) ([1]; No serum, in µg/mL): 4
MIC, Stability in serum (MH) ([1]; Serum (10% fetal bovine serum), in µg/mL): 16
MIC on initial panels [1, 12]: 4
MIC [1, 14]: 32 µg/mL (≈ 12.1 µM)
MIC on initial panels [2, 12]: 64
MIC [2, 14]: 32 µg/mL (≈ 12.1 µM)
MIC, Stability in serum (MH) ([3]; No serum): 1 µg/mL (≈ 0.377 µM)
MIC, Stability in serum (MH) ([3]; Serum (10% fetal bovine serum)): 2 µg/mL (≈ 0.754 µM)
MIC on initial panels [3, 12]: 1
MIC [3, 13]: 8-32
MIC, Stability in serum (MH) ([4]; No serum): 32
MIC, Stability in serum (MH) ([4]; Serum (10% fetal bovine serum)): 32
MIC on initial panels ([4]; medium and unit not given): 32
MIC [4, 15]: >32
MIC, Peptide concentration ([5]; Mueller-Hinton broth): 64 (NG) μg/ml
MIC on initial panels ([5]; VSE775, medium and unit not given, in µg/mL): 64
MIC on initial panels (VRE12201): 128 µg/mL (≈ 48.2 µM)
MIC on initial panels ([6]; AB17978, medium and unit not given): 1
MIC ([6]; AB17978, untitled table, medium/unit not given, values match RPMI of Table 2): 16
MIC, Stability in serum (MH) ([6]; No serum): 1
MIC, Stability in serum (MH) ([6]; Serum (10% fetal bovine serum)): 2-16
MIC, Stability in serum (MH) ([7]; No serum): 1 µg/mL (≈ 0.377 µM)
MIC, Stability in serum (MH) ([7]; Serum (10% fetal bovine serum)): 1 µg/mL (≈ 0.377 µM)
MIC on initial panels [7, 12]: 1
MIC [7, 13]: 8
Toxicity HeLa (HeLa; unit not given): 198.2 ± 10.2
Toxicity HeLa (EC50), Peptide concentration (HeLa; value printed in parentheses): (198.2 ± 10.2) μg/ml
Toxicity HEK293 (HEK293; unit not given): 217.3 ± 46.5
Toxicity HEK293 (EC50), Peptide concentration (HEK293; value printed in parentheses): (217.3 ± 46.5) μg/ml
MIC on initial panels ([8]; medium and unit not given): 16
MIC [8, 15]: 32-64
MIC, Stability in serum (MH) ([9]; No serum): 8
MIC, Stability in serum (MH) ([9]; Serum (10% fetal bovine serum)): 8-32
MIC on initial panels ([9]; medium and unit not given): 8
MIC [9, 15]: 32
Toxicity Calu-3 (EC50), Peptide concentration (Calu-3): (>250) μg/ml
MIC on initial panels (P. aeruginosa RP73; medium and unit not given): 16-64
MIC (P. aeruginosa RP73; untitled table, medium/unit not given): 32-64
MIC, Peptide concentration ([10]; EMR -15 (EMRSA-15)): 8 µg/mL (≈ 3.01 µM)
MIC on initial panels ([10]; EMRSA15, medium and unit inferred): 32 µg/mL (≈ 12.1 µM)
MIC ([10]; EMRSA15, untitled table, medium/unit inferred, values match RPMI of Table 2): 8 µg/mL (≈ 3.01 µM)
MIC, Peptide concentration ([10]; Mueller-Hinton broth): 32 µg/mL (≈ 12.1 µM)
MIC on initial panels ([11]; medium and unit inferred): 4 µg/mL (≈ 1.51 µM)
MIC [11, 13]: 8
